For this test, the system named is T1, TaG6PDH2 (TaG6PDH2-2D).
T1 construct: CDS in pET15b-sumo, E. coli BL21 (DE3), 6xHis and SUMO tags, about 75 kDa on gel; His-Trap FF purified fusion
As to the kind of experiment: G6PDH activity, double-reciprocal plot ([…]/V vs. […]/[G6P]). The test is classed as biochemical, Triticum aestivum. The following applies: purified His-SUMO fusion; assay conditions only by reference; read-out: KmG6P.

For the compound `O=P(O)(O)OC[C@H]1OC(O)[C@H](O)[C@@H](O)[C@@H]1O` (stereo partly shown) [G6P, glucose-6-phosphate], the Km is 1980 µM.
